Measurements taken from patent US8241647B2, “Amphiphilic molecule, molecular assembly comprising the amphiphilic molecule, and use of the molecular assembly” (Waseda University, priority 2007, dated 2012).

How the values were obtained:
[1] = Measurement of zeta potential of liposomes; format: physicochemical; settings: 37°C
Description: Portions of the prepared liposome ([lipid]=10 mg/ml) were respectively added to acetate buffers with different pHs (7.4, 7, 6, 5, 4) (30 mM) to the final concentration of [lipid]=1 mg/mL, and then the zeta potential at 37° C. was measured. Zetasizer 4 manufactured by Malvern was used. A capillary cell was filled with a liposome-dispersed liquid obtained by dilution to the measurement concentration, and the measurement was performed at 37° C. 3 times.
Portions of the prepared liposome ([lipid]=10 mg/ml) were respectively added to acetate buffers with different pHs (7.4, 7, 6, 5, 4) (20 mM) to the final concentration of [lipid]=1 mg/mL, and then the zeta potential at 37° C. was measured.
Portions of each of the prepared liposomes ([lipid]=10 mg/ml) were respectively added to acetate buffers with different pHs (7.4, 7, 6, 5, 4) (20 mM) to the final concentration of [lipid]=1 mg/mL, and then the zeta potential at 37° C. was measured.

[2] = Preparation of liposome from mixed lipid (dispersion in water, high-pressure extrusion); format: physicochemical; settings: mixed lipid compound/cholesterol/PEG-Glu2C18 dispersed in water, high-pressure extrusion 0.22 μm
Description: (§1) Compound 7, 8 or 9 (0.177 mmol), cholesterol (0.179 mmol) and PEG-Glu2C18 (1.0 μmol) were dissolved in benzene, and the mixture was freeze-dried to prepare a mixed lipid. 20 mg of this mixed lipid was dispersed in 1 mL of water for injection, and the resultant mixture was stirred for 6 hours. After that, liposome having a particle size of about 240 nm was prepared by means of the high-pressure extrusion method (final pore diameter: 0.22 μm).
as §1, with “Compound 3, 12” for “Compound 7, 8”, “or 13” for “or 9”, “(1.0 mmol)” for “(1.0 μmol)”

zeta potential of the liposome ([1]; liposome Compound 3/cholesterol/PEG-Glu2C18 (5/5/0.03), pH 7.4): negative
zeta potential as pH was decreased ([1]; liposome Compound 3/cholesterol/PEG-Glu2C18 (5/5/0.03 molar ratio), acetate buffers pH 7.4-4 (30 mM)): changed from negative to positive
pH at which the zeta potential changed from negative to positive ([1]; liposome compound/cholesterol/PEG-Glu2C18 (5/5/0.03 molar ratio), acetate buffers 20 mM): about 5.7
liposome formation with the compound as main component [2]: liposome was formed
Structure (SMILES): CCCCCCCCCCCCCCCCOC(=O)CCC(NC(=O)C(CCCCNC(=O)C(N)CCC(=O)O)NC(=O)C(N)CCC(=O)O)C(=O)OCCCCCCCCCCCCCCCC (stereo not shown) [Compound 3]
